Experimental data: ChEMBL document CHEMBL1287803, “Synthesis of 4β-N-polyaromatic substituted podophyllotoxins: DNA topoisomerase inhibition, anticancer and apoptosis-inducing activities” (Bioorg Med Chem, 2010)
Calls of active or inactive are those of the source. The calls are words filed in the database; no cut-off is given here.

How the values were obtained:
A549 = assay: Anticancer activity against human A549 cells assessed as cell viability after 48 hrs by SRB assay; assay type: functional, cell-based; conditions: A549, 48 h
HCT-15 = assay: Anticancer activity against human HCT15 cells assessed as cell viability after 48 hrs by SRB assay; assay type: functional, cell-based; conditions: HCT-15, 48 h
HEp-2 = assay: Anticancer activity against human Hep2 cells assessed as cell viability after 48 hrs by SRB assay; assay type: functional, cell-based; conditions: HEp-2, 48 h
PC-3 = assay: Anticancer activity against human PC3 cells assessed as cell viability after 48 hrs by SRB assay; assay type: functional, cell-based; conditions: PC-3, 48 h
[1] = Anticancer activity against human 502713 cells assessed as cell viability after 48 hrs by SRB assay; assay type: functional, cell-based; conditions: Homo sapiens, 502713, 48 h
DU-145 = assay: Anticancer activity against human DU145 cells assessed as cell viability after 48 hrs by SRB assay; assay type: functional, cell-based; conditions: DU-145, 48 h
IMR-32 = assay: Anticancer activity against human IMR32 cells assessed as cell viability after 48 hrs by SRB assay; assay type: functional, cell-based; conditions: IMR-32, 48 h
[2] = Inhibition of DNA topoisomerase 2 assessed as inhibition of relaxation of supercoiled pBR322 plasmid DNA at 1 mM by gel electrophoresis
[3] = Inhibition of DNA topoisomerase 2 assessed as inhibition of relaxation of supercoiled pBR322 plasmid DNA at 10 to 500 uM by gel electrophoresis
MOLT-4 [4] = assay: Cell cycle arrest in human MOLT4 cells assessed as accumulation at sub G1 phase at 5 uM after 24 hrs using propidium iodide staining by flow cytometry; assay type: functional, cell-based
MOLT-4 [5] = assay: Induction of apoptosis in human MOLT4 cells assessed as DNA fragmentation at 1 uM after 24 hrs by agarose gel electrophoresis; assay type: functional, cell-based
MOLT-4 [6] = assay: Cell cycle arrest in human MOLT4 cells assessed as accumulation at sub G1 phase at 1 uM after 24 hrs using propidium iodide staining by flow cytometry; assay type: functional, cell-based
MOLT-4 [7] = assay: Cell cycle arrest in human MOLT4 cells assessed as accumulation at sub G1 phase at 0.5 uM after 24 hrs using propidium iodide staining by flow cytometry; assay type: functional, cell-based
MOLT-4 [8] = assay: Induction of apoptosis in human MOLT4 cells assessed as DNA fragmentation at 5 uM after 24 hrs by agarose gel electrophoresis; assay type: functional, cell-based
MOLT-4 [9] = assay: Cell cycle arrest in human MOLT4 cells assessed as accumulation at sub G1 phase at 10 uM after 24 hrs using propidium iodide staining by flow cytometry; assay type: functional, cell-based
MOLT-4 [10] = assay: Induction of apoptosis in human MOLT4 cells assessed as DNA fragmentation at 10 uM after 24 hrs by agarose gel electrophoresis; assay type: functional, cell-based
MOLT-4 [11] = assay: Induction of apoptosis in human MOLT4 cells assessed as DNA fragmentation at 0.5 uM after 24 hrs by agarose gel electrophoresis; assay type: functional, cell-based
[12] = Inhibition of DNA topoisomerase 2 assessed as inhibition of relaxation of supercoiled pBR322 plasmid DNA at 10 uM by gel electrophoresis

O=c1[nH]cc(F)c(=O)[nH]1 [FLUOROURACIL]
IC50 (A549): 2400 nM | IC50 (HCT-15): 3600 nM | IC50 (HEp-2): 300 nM | IC50 (PC-3): 12000 nM | IC50 [1]: 4600 nM | IC50 (DU-145): 4800 nM | IC50 (IMR-32): 18000 nM

COc1cc([C@@H]2c3cc4c(cc3[C@@H](Nc3ccc(C(=O)c5ccc(F)cc5)cc3)[C@H]3COC(=O)[C@H]23)OCO4)cc(OC)c1OC
IC50 (A549): 17000 nM | IC50 (HCT-15): 6200 nM | IC50 (HEp-2): 7100 nM | IC50 (PC-3): 6700 nM | IC50 [1]: 4100 nM | IC50 (IMR-32): 19000 nM

COc1cc([C@@H]2c3cc4c(cc3[C@@H](Nc3cccc5c3Cc3ccccc3-5)[C@H]3COC(=O)[C@H]23)OCO4)cc(OC)c1OC
IC50 (A549): 7100 nM | IC50 (HCT-15): 90 nM | IC50 (HEp-2): 3000 nM | IC50 (PC-3): 4300 nM | IC50 [1]: 5500 nM | IC50 (DU-145): 6600 nM | IC50 (IMR-32): 5500 nM

COc1cc([C@@H]2c3cc4c(cc3[C@@H](Nc3ccc5ccc6cccc7ccc3c5c67)[C@H]3COC(=O)[C@H]23)OCO4)cc(OC)c1O
IC50 (A549): 1700 nM | IC50 (HCT-15): 0.1 nM | IC50 (HEp-2): 0.2 nM | IC50 [1]: 2 nM | IC50 (DU-145): 2200 nM | IC50 (IMR-32): 200 nM

COc1cc([C@@H]2c3cc4c(cc3[C@@H](Nc3ccc(C(=O)c5ccc(N(CCCl)CCCl)cc5)cc3)[C@H]3COC(=O)[C@H]23)OCO4)cc(OC)c1OC
IC50 (A549): 3080 nM | IC50 (HCT-15): 900 nM | IC50 (HEp-2): 900 nM | IC50 (PC-3): 2600 nM | IC50 [1]: 100 nM | IC50 (DU-145): 3700 nM | IC50 (IMR-32): 6300 nM

COc1cc([C@@H]2c3cc4c(cc3[C@@H](Nc3ccc5ccc6cccc7ccc3c5c67)[C@H]3COC(=O)[C@H]23)OCO4)cc(OC)c1OC
IC50 (A549): 0.9 nM | IC50 (HCT-15): 0.1 nM | IC50 (PC-3): 0.1 nM | IC50 [1]: 2 nM | inhibition [2]: Active | inhibition [3]: Active

COc1cc([C@@H]2c3cc4c(cc3[C@@H](Nc3cc5c6ccccc6ccc5c5ccccc35)[C@H]3COC(=O)[C@H]23)OCO4)cc(OC)c1OC
Activity (MOLT-4 [4]): Active | IC50 (A549): 40 nM | IC50 (HCT-15): 2 nM | Activity (MOLT-4 [5]): Active | IC50 (HEp-2): 2 nM | Activity (MOLT-4 [6]): Active | IC50 (PC-3): 100 nM | Activity (MOLT-4 [7]): Active | IC50 [1]: 100 nM | Activity (MOLT-4 [8]): Active | inhibition [2]: Active | IC50 (DU-145): 2200 nM | Activity (MOLT-4 [9]): Active | Activity (MOLT-4 [10]): Active | inhibition [3]: Active | Activity (MOLT-4 [11]): Active | IC50 (IMR-32): 3 nM

CC[C@@]1(O)C(=O)OCc2c1cc1n(c2=O)Cc2cc3ccccc3nc2-1 [CAMPTOTHECIN]
Activity (MOLT-4 [4]): Active | IC50 (A549): 30 nM | IC50 (HCT-15): 67 nM | IC50 (HEp-2): 700 nM | IC50 (PC-3): 30 nM | IC50 (DU-145): 20 nM | IC50 (IMR-32): 80 nM

COc1cc([C@@H]2c3cc4c(cc3[C@@H](Nc3cccc5cc6ccccc6cc35)[C@H]3COC(=O)[C@H]23)OCO4)cc(OC)c1OC
IC50 (A549): 8800 nM | IC50 (HCT-15): 6300 nM | IC50 (HEp-2): 6700 nM | IC50 (PC-3): 7900 nM | IC50 [1]: 9400 nM | IC50 (DU-145): 21000 nM | IC50 (IMR-32): 6700 nM

COc1cc([C@@H]2c3cc4c(cc3[C@@H](Nc3ccc(C(=O)c5ccc(F)cc5)cc3)[C@H]3COC(=O)[C@H]23)OCO4)cc(OC)c1O
IC50 (A549): 200 nM | IC50 (HCT-15): 80 nM | IC50 (HEp-2): 1300 nM | IC50 (PC-3): 6000 nM | IC50 [1]: 1400 nM | IC50 (DU-145): 300 nM | IC50 (IMR-32): 1300 nM

COc1cc([C@@H]2c3cc4c(cc3[C@@H](Nc3cccc5cc6ccccc6cc35)[C@H]3COC(=O)[C@H]23)OCO4)cc(OC)c1O
IC50 (A549): 8300 nM | IC50 (HCT-15): 8200 nM | IC50 (HEp-2): 8600 nM | IC50 (DU-145): 18000 nM | IC50 (IMR-32): 2300 nM

COc1cc([C@@H]2c3cc4c(cc3[C@@H](Nc3cccc5c3Cc3ccccc3-5)[C@H]3COC(=O)[C@H]23)OCO4)cc(OC)c1O
IC50 (A549): 1000 nM | IC50 (HCT-15): 0.1 nM | IC50 (HEp-2): 1000 nM | IC50 (PC-3): 500 nM | IC50 [1]: 1 nM | IC50 (DU-145): 2700 nM | IC50 (IMR-32): 10000 nM

COc1cc([C@@H]2c3cc4c(cc3[C@@H](Nc3cc5c6ccccc6ccc5c5ccccc35)[C@H]3COC(=O)[C@H]23)OCO4)cc(OC)c1O
IC50 (A549): 0.3 nM | IC50 (HCT-15): 100 nM | IC50 (HEp-2): 10 nM | IC50 (PC-3): 0.3 nM | IC50 [1]: 100 nM | inhibition [2]: Active | IC50 (DU-145): 0.3 nM | inhibition [3]: Active | IC50 (IMR-32): 1 nM

COc1cc([C@@H]2c3cc4c(cc3[C@@H](O[C@@H]3O[C@@H]5CO[C@@H](C)O[C@H]5[C@H](O)[C@H]3O)[C@H]3COC(=O)[C@H]23)OCO4)cc(OC)c1O [ETOPOSIDE]
IC50 (A549): 3080 nM | IC50 (HCT-15): 900 nM | IC50 (HEp-2): 900 nM | IC50 (PC-3): 2600 nM | IC50 [1]: 100 nM | inhibition [12]: Active | IC50 (DU-145): 3700 nM | IC50 (IMR-32): 6300 nM
